According to article PMC5317004 (Scientific Reports, 2017):

Tested on: T1, homomeric GluClβR
T1 construct: homomeric receptors assembled from the full-length C. elegans GluClβ subunit; expressed in transfected cells; host or cells: CHO-K1 cells, transient transfection, pcDNA3.1
Assay: Effect of IVM on Glu-elicited currents of homomeric GluClβ receptors in CHO cells (whole-cell patch clamp)
Format: cell-based, C. elegans
Conditions: pre-application of 2 μM IVM for 10 seconds, 100 mM Glu, +60 mV, four cells
Method: Figure 9 Effect of IVM on homomeric GluClβ receptors. (A) Representative current traces obtained by the indicated application protocol. Glu (100 mM) was applied for either 350 ms to obtain peak IP0 at −60 mV, or 600 ms to obtain peaks IP1, IP2 and IP3 at +60 mV. Note that the responses at both membrane voltages, −60 and +60 mV, start to desensitize appreciably before the end of Glu application. IVM (2 μM) was applied for 10 seconds. Asterisk indicates a 25-sec-long wash between the second and third Glu applications. (B) Current-voltage (I/V) relations obtained in a different cell than in A upon the application of Glu (100 mM) over a voltage ramp lasting 200 ms. […] Current ratios were extracted from experiments performed as shown in (A). Mean ± SEM of four cells are presented. Paired, two-tailed Student’s t-tests indicate that **0.001 < P < 0.01 and ***P < 0.0002.
Supplementary Information
Trapping of ivermectin by a pentameric ligand-gated ion channel upon open-to-cl ose d i someri zati on N. Degani-Katzav, M. Klein, M. Har-Even, R. Gortler, R. Tobi and Y. Paas*
Supplementary Materials and Methods […]
The electrode resistance was 6-10 MΩ when filled with the pipette solution. […] The currents w ere measured with an Axopatch 200B patch-clamp amplifier (Molecular Devices, Sunnyvale, CA) and a Digidata 1440A interface (Molecular Devices). […]

SMILES: CC[C@H](C)[C@H]1O[C@]2(CC[C@@H]1C)C[C@@H]1C[C@@H](C/C=C(\C)[C@@H](O[C@H]3C[C@H](OC)[C@@H](O[C@H]4C[C@H](OC)[C@@H](O)[C@H](C)O4)[C@H](C)O3)[C@@H](C)/C=C/C=C3\CO[C@@H]4[C@H](O)C(C)=C[C@@H](C(=O)O1)[C@]34O)O2 [IVM, Ivermectin]
- Glu response remaining after IVM pre-application (IP2/IP1 ratio): ~67%
